Among the data in ChEMBL document CHEMBL1150251, “SAR and QSAR study on 2-aminothiazole derivatives, modulators of transcriptional repression in Huntington's disease” (Bioorg Med Chem, 2008) are Activity values, retold here.

In this assay the test system is ST14A. The experiment in a line: Modulation of RE1/NRSE expressed in ST14A cells assessed as increase in luciferase reporter activity at 50 nM after 72 hrs relative to control. Format: cell-based. (Reporter assays use an easily measured gene product as a stand-in for the process of interest.)
For `Cc1nc2ccccn2c1-c1csc(Nc2ccc(Br)cc2)n1`, the Activity turned out to be 1.9.

With `CCN(CC)c1ccc(Nc2nc(-c3c(C)nc4cc(C)ccn34)cs2)cc1`, the Activity stood at 1.06. The value for `C=CCNc1nc(-c2c(C)nc3ccccn23)cs1` was 0.91; that for `COc1ccccc1Nc1nc(-c2c(C)nc3ncccn23)cs1` was 0.97; that for `Cc1nc2ccccn2c1-c1csc(Nc2ccc(N)cc2)n1` was 1.28. The value for `COc1ccc(Nc2nc(-c3c(C)nc4ccccn34)cs2)cc1` was 2. The value for `Cc1nc2ccccn2c1-c1csc(NC(=O)c2ccco2)n1` was 0.94; that for `CN(C)c1ccc(Nc2nc(-c3ccccc3)cs2)cc1` was 1.3; that for `COc1ccc(Nc2nc(-c3c(C)nc4cc(C)ccn34)cs2)cc1` was 2.19. As to `CN(C)c1ccc(Nc2nc(-c3ccncc3)cs2)cc1`, the Activity stood at 1.13. The value for `Cc1nc2ncccn2c1-c1csc(Nc2ccc(N(C)C)cc2)n1` was 3.34; that for `Cc1nc2ccccn2c1-c1csc(Nc2ccccc2)n1` was 1.01; that for `CCN(CC)c1ccc(Nc2nc(-c3c(C)nc4ccccn34)cs2)cc1` was 1.09. The value for `Cc1nc2ccccn2c1-c1csc(Nc2cccc(O)c2)n1` was 1.04; that for `Cc1nc2ccccn2c1-c1csc(NC(=O)c2ccc(Br)cc2)n1` was 0.94. In the case of `COc1cc(Br)c(Nc2nc(-c3c(C)nc4ncccn34)cs2)c(Br)c1`, the Activity amounted to 1.03. The value for `COc1ccc(Cl)c(Nc2nc(-c3c(C)nc4ncccn34)cs2)c1` was 0.74; that for `Cc1nc2ccccn2c1-c1csc(NCc2ccco2)n1` was 1.01. The value for `Cc1nc2ccccn2c1-c1csc(N)n1` was 0.87; that for `CCOc1ccccc1Nc1nc(-c2c(C)nc3cc(C)ccn23)cs1` was 0.94; that for `Cc1nc2sccn2c1-c1csc(Nc2ccc(N(C)C)cc2)n1` was 1.8. Take `COc1cc(Br)c(Nc2nc(-c3c(C)nc4cc(C)ccn34)cs2)c(Br)c1`: the Activity was found to be 1.07.

On to `COc1ccc(Cl)c(Nc2nc(-c3c(C)nc4sccn34)cs2)c1`, for which the Activity came out at 0.91. As to `Cc1nc2ncccn2c1-c1csc(Nc2ccc(O)cc2)n1`, the Activity is 0.89. As to `Cc1nc2ccccn2c1-c1csc(NC(=O)c2ccccc2)n1`, the Activity was determined as 1.09. The value for `Cc1ccn2c(-c3csc(NCc4ccco4)n3)c(C)nc2c1` was 0.99; that for `CCOc1ccc(Nc2nc(-c3c(C)nc4cc(C)ccn34)cs2)cc1` was 1.88; that for `Cc1ccn2c(-c3csc(NCc4ccccc4)n3)c(C)nc2c1` was 1.3. The value for `Cc1ccnc(Nc2nc(-c3c(C)nc4ccccn34)cs2)c1` was 0.98; that for `Cc1ccn2c(-c3csc(Nc4ccc(N(C)C)cc4)n3)c(C)nc2c1` was 2.55; that for `Cc1nc2ccccn2c1-c1csc(Nc2ccc(O)cc2)n1` was 1.02. The value for `CCN(CC)c1ccc(Nc2nc(-c3c(C)nc4sccn34)cs2)cc1` was 1.04; that for `Cc1ccn2c(-c3csc(Nc4ccc(O)cc4)n3)c(C)nc2c1` was 1.08.

In the case of `Cc1nc2sccn2c1-c1csc(Nc2ccc(O)cc2)n1`, the Activity turned out to be 0.95.

For the molecule `COc1ccc(Cl)c(Nc2nc(-c3c(C)nc4ccccn34)cs2)c1`, the Activity worked out at 1.09. The value for `CCN(CC)c1ccc(Nc2nc(-c3c(C)nc4ncccn34)cs2)cc1` was 1.16; that for `Cc1nc(N)sc1-c1csc(Nc2ccc(N(C)C)cc2)n1` was 1.23. Consider `Cc1nc2sccn2c1-c1csc(Nc2ccc(N)cc2)n1`, for which the Activity is 1.14. The value for `Cc1ccn2c(-c3csc(Nc4ccc(C(=O)O)cc4)n3)c(C)nc2c1` was 1.12.

Regarding `Cc1ccn2c(-c3csc(Nc4cccc(C(=O)O)c4)n3)c(C)nc2c1`, the Activity stood at 1.14. The value for `Cc1nc2ccccn2c1-c1csc(NC(=O)c2cccnc2)n1` was 0.98. The value for `Cc1nc2ccccn2c1-c1csc(NC(=O)c2ccncc2)n1` was 1; that for `Cc1ccn2c(-c3csc(Nc4ccc(N)cc4)n3)c(C)nc2c1` was 1.14. The value for `Cc1nc2ccccn2c1-c1csc(NCc2ccccc2)n1` was 0.97. Turning to `COc1ccc(Nc2nc(-c3c(C)nc4ncccn34)cs2)cc1`, the Activity turned out to be 2.29.
